Results on one compound are retold here after ChEMBL document CHEMBL2074449, “P-glycoprotein mediates profound resistance to bisantrene” (Oncol Res, 1994).

The series concerns the target ATP-dependent translocase ABCB1 (Homo sapiens, UniProt P08183). The series is described as follows: TP_TRANSPORTER: efflux in S1-B1-20 cells. It is filed as functional, cell-based.

Chain of ATP-dependent translocase ABCB1 (P08183 whole entry): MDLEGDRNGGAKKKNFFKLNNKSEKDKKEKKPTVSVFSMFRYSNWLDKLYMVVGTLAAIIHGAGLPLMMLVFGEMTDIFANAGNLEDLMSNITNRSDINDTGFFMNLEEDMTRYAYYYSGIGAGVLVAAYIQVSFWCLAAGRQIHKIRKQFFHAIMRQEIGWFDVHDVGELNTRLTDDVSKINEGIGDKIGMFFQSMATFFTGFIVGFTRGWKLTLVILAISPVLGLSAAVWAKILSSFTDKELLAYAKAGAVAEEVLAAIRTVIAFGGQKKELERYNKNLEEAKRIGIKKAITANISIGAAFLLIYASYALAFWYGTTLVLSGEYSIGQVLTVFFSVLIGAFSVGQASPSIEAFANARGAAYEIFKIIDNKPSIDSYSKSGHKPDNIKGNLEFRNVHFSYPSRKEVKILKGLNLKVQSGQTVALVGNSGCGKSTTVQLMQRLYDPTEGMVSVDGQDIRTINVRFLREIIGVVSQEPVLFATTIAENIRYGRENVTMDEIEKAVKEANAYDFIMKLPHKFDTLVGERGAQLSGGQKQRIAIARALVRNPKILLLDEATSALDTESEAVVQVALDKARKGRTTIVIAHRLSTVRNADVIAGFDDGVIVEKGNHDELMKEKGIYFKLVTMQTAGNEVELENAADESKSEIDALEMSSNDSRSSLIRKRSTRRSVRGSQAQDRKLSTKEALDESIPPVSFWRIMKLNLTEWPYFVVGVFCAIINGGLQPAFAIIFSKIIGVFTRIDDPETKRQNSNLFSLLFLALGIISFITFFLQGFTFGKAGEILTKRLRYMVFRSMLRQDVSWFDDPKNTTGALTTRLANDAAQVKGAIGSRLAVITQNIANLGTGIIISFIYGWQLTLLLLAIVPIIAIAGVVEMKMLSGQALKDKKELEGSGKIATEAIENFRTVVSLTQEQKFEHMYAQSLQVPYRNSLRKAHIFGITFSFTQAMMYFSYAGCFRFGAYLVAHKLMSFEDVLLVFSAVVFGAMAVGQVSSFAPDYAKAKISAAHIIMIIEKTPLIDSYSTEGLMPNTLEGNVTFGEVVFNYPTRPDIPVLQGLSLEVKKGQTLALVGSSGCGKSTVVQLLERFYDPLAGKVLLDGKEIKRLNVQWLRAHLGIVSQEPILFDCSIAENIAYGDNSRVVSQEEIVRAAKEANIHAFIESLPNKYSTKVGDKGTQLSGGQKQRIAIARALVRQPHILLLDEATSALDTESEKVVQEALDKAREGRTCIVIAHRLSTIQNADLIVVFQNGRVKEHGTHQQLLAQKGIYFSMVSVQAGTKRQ

Turning to `C(=N\NC1=NCCN1)/c1c2ccccc2c(/C=N/NC2=NCCN2)c2ccccc12` [BISANTRENE], the Activity entry was “substrate [+]”.
